BindingDB's records for doi:10.7270/Q2NC5ZRN (Burnham Center For Chemical Genomics, 2012)

Biological target: DNA (cytosine-5)-methyltransferase 1 (Homo sapiens, UniProt P26358)
Experiment: DNMT1 methyltransferase inhibitors, confirmation, biochemical, fluorescent molecular beacon (AID 602386)

Chain of DNA (cytosine-5)-methyltransferase 1 (P26358 whole entry): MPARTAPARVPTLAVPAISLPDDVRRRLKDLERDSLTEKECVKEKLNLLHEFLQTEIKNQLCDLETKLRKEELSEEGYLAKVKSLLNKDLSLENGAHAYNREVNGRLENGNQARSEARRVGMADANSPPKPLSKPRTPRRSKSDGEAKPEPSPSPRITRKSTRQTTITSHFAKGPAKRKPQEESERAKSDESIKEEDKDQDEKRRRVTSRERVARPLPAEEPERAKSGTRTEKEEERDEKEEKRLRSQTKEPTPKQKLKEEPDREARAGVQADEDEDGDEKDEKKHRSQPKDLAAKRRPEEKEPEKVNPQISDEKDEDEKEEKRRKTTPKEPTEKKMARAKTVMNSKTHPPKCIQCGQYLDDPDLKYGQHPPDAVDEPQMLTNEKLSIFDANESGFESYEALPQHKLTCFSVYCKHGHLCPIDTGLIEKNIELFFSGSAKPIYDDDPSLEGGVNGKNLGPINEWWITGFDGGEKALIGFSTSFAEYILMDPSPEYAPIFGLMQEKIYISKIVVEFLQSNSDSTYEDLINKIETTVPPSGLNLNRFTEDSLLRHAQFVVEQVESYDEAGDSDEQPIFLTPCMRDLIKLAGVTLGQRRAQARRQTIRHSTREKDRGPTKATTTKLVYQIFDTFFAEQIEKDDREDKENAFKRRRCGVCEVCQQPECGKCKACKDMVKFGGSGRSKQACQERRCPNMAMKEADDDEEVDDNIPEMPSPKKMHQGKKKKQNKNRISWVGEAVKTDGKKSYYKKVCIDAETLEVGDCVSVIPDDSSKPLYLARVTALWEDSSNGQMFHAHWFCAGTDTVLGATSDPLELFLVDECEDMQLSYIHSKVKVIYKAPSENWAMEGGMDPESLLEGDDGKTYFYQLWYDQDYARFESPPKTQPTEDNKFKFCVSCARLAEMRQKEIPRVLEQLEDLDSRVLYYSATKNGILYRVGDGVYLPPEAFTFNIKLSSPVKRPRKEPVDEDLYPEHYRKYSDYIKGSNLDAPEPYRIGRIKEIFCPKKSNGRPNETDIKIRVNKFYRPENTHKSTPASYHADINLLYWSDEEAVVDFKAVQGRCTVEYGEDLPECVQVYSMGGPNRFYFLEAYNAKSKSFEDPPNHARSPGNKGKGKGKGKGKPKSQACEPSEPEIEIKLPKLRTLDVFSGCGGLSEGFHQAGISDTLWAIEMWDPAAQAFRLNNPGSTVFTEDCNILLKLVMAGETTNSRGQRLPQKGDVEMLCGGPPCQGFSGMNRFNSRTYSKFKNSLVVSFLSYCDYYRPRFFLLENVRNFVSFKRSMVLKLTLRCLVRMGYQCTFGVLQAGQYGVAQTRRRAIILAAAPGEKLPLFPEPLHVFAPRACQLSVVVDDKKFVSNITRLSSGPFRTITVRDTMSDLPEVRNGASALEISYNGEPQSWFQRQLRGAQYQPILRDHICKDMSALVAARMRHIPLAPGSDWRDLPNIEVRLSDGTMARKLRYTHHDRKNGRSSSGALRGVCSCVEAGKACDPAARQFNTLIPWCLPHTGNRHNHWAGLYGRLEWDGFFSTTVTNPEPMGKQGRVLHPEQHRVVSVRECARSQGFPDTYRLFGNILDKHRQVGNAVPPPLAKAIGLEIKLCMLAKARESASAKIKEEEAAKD

SMILES	IC50 [µM]
CCOC1=CC(=Cc2c(-c3ccccc3)[nH]n(-c3nc(-c4ccc(Br)cc4)cs3)c2=O)C=CC1=O	4.35
O=C1N=c2ccccc2=C1NNc1ccc(F)cc1	19.3
CCOc1ccc(CN=Nc2ccc(S(=O)(=O)Nc3ccccc3C(=O)O)cc2[N+](=O)[O-])cc1	5.78
CCCCn1c(NC(=S)Nc2ccccc2)nc2ccccc21	1.02
C=CCOc1ccc(CN=Nc2ccc(S(=O)(=O)Nc3ccccc3C(=O)O)cc2[N+](=O)[O-])cc1OC [2-[[4-[2-[(3-methoxy-4-prop-2-enoxy-phenyl)methylidene]hydrazinyl]-3-nitro-phenyl]sulfonylamino]benzoic acid]	5.32
COc1cc(NS(=O)(=O)c2ccc(NC(=S)NC(=O)c3sc4ccccc4c3Cl)cc2)nc(OC)n1 [3-chloranyl-N-[[4-[(2,6-dimethoxypyrimidin-4-yl)sulfamoyl]phenyl]carbamothioyl]-1-benzothiophene-2-carboxamide]	41
NC(=NNC=c1ccc(=C2C=CC(=O)C(C(=O)O)=C2)o1)N[N+](=O)[O-] [5-(5-{2-[amino(nitroimino)methyl]carbonohydrazonoyl}-2-furyl)-2-hydroxybenzoic acid]	3.94
Cc1[nH]n(-c2ccccc2)c(=O)c1C=C1NC(=S)NC1=O [5-methyl-4-[(Z)-(5-oxo-2-sulfanylideneimidazolidin-4-ylidene)methyl]-2-phenyl-4H-pyrazol-3-one]	8.39
CC=CC=CC(=O)C1C(=O)[C@]2(C)C(=O)C(C)(O)[C@H]1[C@H]([C@]1(C)OC(=O)C(C)C1=O)[C@H]2C(=O)C=CC=CC (stereo partly drawn) [(1S,4R,6E,7S,8R)-8-[(2E,4E)-hexa-2,4-dienoyl]-2-hydroxy-7-[(2S)-5-hydroxy-2,4-dimethyl-3-oxofuran-2-yl]-6-[(2E,4E)-1-hydroxyhexa-2,4-dienylidene]-2,4-dimethylbicyclo[2.2.2]octane-3,5-dione]	5.25
COc1ccccc1N1CC=[N+](N[CH-]c2ccc(Cl)c([N+](=O)[O-])c2)CC1 [(E)-1-(4-chloro-3-nitrophenyl)-N-[4-(2-methoxyphenyl)piperazin-1-yl]methanimine]	> 99
Cc1ccc(C(=O)N[n+]2cc(O)[c-](-c3nc(-c4cccc([N+](=O)[O-])c4)cs3)c2N)cc1 [MLS000391743]	> 99
CCN(CC)CCOc1ccc2c(c1)C(N=O)c1cc(OCCN(CC)CC)ccc1-2 [MLS000518859]	> 99
O=C(/C=C/c1ccco1)NCC(=O)NNC1=c2ccccc2=NC1=O [MLS001075666]	3.25
CSc1ccc(CN=Nc2ccc(S(=O)(=O)Nc3ccccc3C(=O)O)cc2[N+](=O)[O-])cc1 [MLS002245633]	3.26
COc1ccc(OC)c(-n2c(O)c3o[nH]c(-c4ccccc4Cl)c-3c2=O)c1 [SMR000046218]	4.35
C=c1[nH]n(-c2cccc(C(=O)O)c2)c(=O)c1=CC=Cc1ccco1 [SMR000113614]	1.18
COc1ccc(C=c2c(=CSc3ccc(Cl)cc3)[nH]n(-c3nc4ccccc4s3)c2=O)cc1 [SMR000193462]	2.86
NS(=O)(=O)c1ccc(NN=C2C=CC(=O)NC2=O)cc1 [SMR000528591]	7.65
O=C(CSc1nc(O)cc(=O)[nH]1)Nc1ccccc1[N+](=O)[O-] [SMR000620617]	8.51
